Converted amounts (≈) assume the structure as drawn. Like-named read-outs stand apart in the source and are kept apart here.
Columns and labels:
Format in all cases: cell-based, Streptococcus mutans
[1] = tested on: S. mutans; assay: Formation of Semi-inhibition zone by fluoride varnish mixed with antibacterial substance (agar diffusion); details: for Semi-inhibition zone, Fluoride varnish + 1 mM substance / Semi-inhibition zone, Fluoride varnish + 10 mM substance: Table 4, substance mixed 1:1 with fluoride varnish, positive control = ampicillin alone
Text: In addition, the formation of Semi-inhibition zone was investigated according to the same method as in Test Example 1.

[2] = tested on: S. mutans (ATCC 25175); assay: Agar diffusion test (paper disc), antibacterial substance alone; details: for diameter of the S. mutans inhibition zone, 0.1 mM antibacterial substance alone: 5 μL of 0.1 mM substance on 6 mm paper disc; for diameter of the S. mutans inhibition zone, 0.1 mM antibacterial substance alone / diameter of the S. mutans inhibition zone, 1 mM antibacterial substance alone / diameter of the S. mutans inhibition zone, 10 mM antibacterial substance alone: 24 h, positive control 10 μL/ml ampicillin; for diameter of the S. mutans inhibition zone, 1 mM antibacterial substance alone: 5 μL of 1 mM substance on 6 mm paper disc; for diameter of the S. mutans inhibition zone, 10 mM antibacterial substance alone: 5 μL of 10 mM substance on 6 mm paper disc; for antibacterial activities against S. mutans (in words): screening from a total 100 substances; for activities against S. mutans (in words): 0.1 mM antibacterial substance
Protocol: Specifically, S. mutans was primarily cultured in a BHI medium in a CO2 incubator at 37°C. for 24 hours. Then, 200 μL of a suspension of S. mutans was inoculated into BHI and secondarily cultured for 6 hours. Then, the OD value was measured with Eppendorf Biophotometer plus. After the measurement, the bacteria were mixed with top agar and then inoculated into the agar medium containing base agar. After top agar hardened, a 6 mm diameter paper disc was placed on the agar medium. 5 μL of each of 0.1 mM, 1 mM and 10 mM antibacterial substances was dropped on the paper disc. 10 μL/ml of ampicilin was used as the positive control, and PBS was used as the negative control. After culturing in a CO2 incubator at 37°C for 24 hours, the diameter of the S. mutans inhibition zone formed around the paper disc was measured in two perpendicular locations and the average was calculated to evaluate the antibacterial activities. The average was expressed in mm.

[3] = tested on: S. mutans; assay: Minimum inhibitory concentration (MIC) and minimal bactericidal concentration (MBC), 96-well BHI broth dilution; details: for MIC: BHI broth, 24-hour culture, absorbance at 600 nm
Protocol: The minimum inhibitory concentration and minimal bactericidal concentration of antibacterial substances were identified using S. mutans, which is related to dental caries, as the strain. Specifically, in order to measure MIC, a 96-well plate containing 100 μL of BHI broth per well was used. Antibacterial substances were used at a concentration of 16 mM, and the substance No. 1-2 of Example 1 was used at a concentration of 1 mM. The antibacterial materials were transferred to the first well and diluted stepwise. The substance No. 1-2 was diluted to 1 mM to 0.004375 mM and the other antibacterial substances were diluted to 16 mM to 0.007 mM. S. mutans was activated using BHI broth as the medium and cultured in a CO2 incubator at 37° C. for 24 hours. Then, the bacteria were cultured for another 6 hours, and then 100 μL thereof was added to each well of the 96-well plate. After 24-hour culture, the minimum inhibitory concentration was determined by measuring the absorbance at 600 nm with Enzyme-linked immuno-assay reader (Spectra MAX250, Molecular Devices Co.).

[4] = tested on: S. mutans; assay: Agar diffusion test of fluoride varnish of hydrogenated rosin mixed with antibacterial substance, inhibition zone; details: for Inhibition zone, Fluoride varnish + 1 mM substance / Inhibition zone, Fluoride varnish + 10 mM substance: substance mixed 1:1 with fluoride varnish, positive control = ampicillin alone; for antibacterial activities of fluoride varnish mixed with substance compared with a fluoride varnish alone (in words): 1 mM or 10 mM antibacterial substance
Protocol: Antibacterial substance powders were dissolved in DMSO to 100 mM and stored. It was diluted with DMSO to prepare 20 mM and 2 mM antibacterial substances.
Specifically, S. mutans was primarily cultured in a BHI medium in a CO2 incubator at 37°C. for 24 hours. Then, 200 μL of a suspension of S. mutans was inoculated into BHI and secondarily cultured for 6 hours. Then, the OD value was measured with Eppendorf Biophotometer plus. After the measurement, the bacteria were mixed with top agar and then inoculated into the agar medium containing base agar. After top agar hardened, a 6 mm diameter paper disc was placed on the agar medium.
5 μL of each of 0.1 mM, 1 mM and 10 mM antibacterial substances was dropped on the paper disc. 10 μL/ml of ampicilin was used as the positive control, and PBS was used as the negative control. After culturing in a CO2 incubator at 37°C for 24 hours, the diameter of the S. mutans inhibition zone formed around the paper disc was measured in two perpendicular locations and the average was calculated to evaluate the antibacterial activities. The average was expressed in mm.
Fluoride varnishes mixed with an antibacterial substance which comprise an antibacterial substance tested in Test Example 1 were prepared according to the method described in Example 2 and the antibacterial activities thereof were tested.

[5] = listed as xanthorrhizol (Santa Cruz)
[6] = listed as xanthorrhizol (BioAlpha)
[7] = Streptococcus mutans, 24 h, read-out: MIC
[8] = Streptococcus mutans, read-out: MBC

CC(C)=CCC[C@@H](C)c1ccc(C)c(O)c1 [No. 1-1, xanthorrhizol]
Semi-inhibition zone, Fluoride varnish + 1 mM substance [1]: 25.515 mm | Semi-inhibition zone, Fluoride varnish + 10 mM substance [1]: 25.725 mm | diameter of the S. mutans inhibition zone, 0.1 mM antibacterial substance alone [2]: 6 mm | diameter of the S. mutans inhibition zone, 1 mM antibacterial substance alone [2]: 6 mm | diameter of the S. mutans inhibition zone, 10 mM antibacterial substance alone [2]: 7.75 mm | MIC [3, 5]: 62 µM (≈ 13.5 µg/mL) | MBC [3, 5]: 125 µM (≈ 27.3 µg/mL) | Inhibition zone, Fluoride varnish + 1 mM substance ([4]; primary test (Table 2)): 9.14 mm | Inhibition zone, Fluoride varnish + 10 mM substance ([4]; primary test (Table 2)): 10.62 mm | Inhibition zone, Fluoride varnish + 1 mM substance ([4]; secondary test (Table 3)): 8.64 mm | Inhibition zone, Fluoride varnish + 10 mM substance ([4]; secondary test (Table 3)): 10.28 mm

CC(C)=CCC[C@@H](C)c1ccc(C)c(O)c1 [No. 1-2, xanthorrhizol]
Semi-inhibition zone, Fluoride varnish + 1 mM substance [1]: 12.265 mm | diameter of the S. mutans inhibition zone, 0.1 mM antibacterial substance alone [2]: 8.26 mm | diameter of the S. mutans inhibition zone, 1 mM antibacterial substance alone [2]: 10.3 mm | MIC, rank (in words) [3]: lowest MIC | MIC [3, 6]: 15 µM (≈ 3.28 µg/mL) | MBC [3, 6]: 62 µM (≈ 13.5 µg/mL) | Inhibition zone, Fluoride varnish + 1 mM substance ([4]; primary test (Table 2)): 8.58 mm | Inhibition zone, Fluoride varnish + 1 mM substance ([4]; secondary test (Table 3)): 9.65 mm

C=C[C@@](C)(/C=C/c1ccc(O)cc1)CCC=C(C)C [No. 2, Bakuchiol]
Semi-inhibition zone, Fluoride varnish + 1 mM substance [1]: 22.87 mm | Semi-inhibition zone, Fluoride varnish + 10 mM substance [1]: 26.705 mm | diameter of the S. mutans inhibition zone, 0.1 mM antibacterial substance alone [2]: 6 mm | diameter of the S. mutans inhibition zone, 1 mM antibacterial substance alone [2]: 8.9 mm | diameter of the S. mutans inhibition zone, 10 mM antibacterial substance alone [2]: 14.5 mm | antibacterial activities against S. mutans (in words) [2]: significant antibacterial activities | MBC, rank (in words) [3]: lowest MBC | MIC, rank (in words) [3]: lowest MIC | MIC [3, 7]: 15 µM (≈ 3.85 µg/mL) | MBC [3, 8]: 31 µM (≈ 7.95 µg/mL) | Inhibition zone, Fluoride varnish + 1 mM substance ([4]; primary test (Table 2)): 9.55 mm | Inhibition zone, Fluoride varnish + 10 mM substance ([4]; primary test (Table 2)): 9.82 mm | antibacterial activities of fluoride varnish mixed with substance compared with a fluoride varnish alone (in words) ([4]; primary test): significant antibacterial activities | Inhibition zone, Fluoride varnish + 1 mM substance ([4]; secondary test (Table 3)): 8.53 mm | Inhibition zone, Fluoride varnish + 10 mM substance ([4]; secondary test (Table 3)): 10.10 mm

CC(C)=CCc1cc(C(=O)/C=C/c2ccc(O)cc2)c(O)cc1O [No. 3, Bavachalcone]
formation of Semi-inhibition zone (in words) [1]: largest Semi-inhibition zone | Semi-inhibition zone, Fluoride varnish + 1 mM substance [1]: 34.025 mm | Semi-inhibition zone, Fluoride varnish + 10 mM substance [1]: 20.74 mm | activities against S. mutans (in words) [2]: significant activities | activities against S. mutans, rank (in words) ([2]; 1 mM antibacterial substance): highest activities | activities against S. mutans, rank (in words) ([2]; 10 mM antibacterial substance): highest activities | diameter of the S. mutans inhibition zone, 0.1 mM antibacterial substance alone [2]: 9.63 mm | diameter of the S. mutans inhibition zone, 1 mM antibacterial substance alone [2]: 14.51 mm | diameter of the S. mutans inhibition zone, 10 mM antibacterial substance alone [2]: 18.87 mm | antibacterial activities against S. mutans (in words) [2]: significant antibacterial activities | MIC, rank (in words) [3]: lowest MIC | MIC [3, 7]: 15 µM (≈ 4.87 µg/mL) | MBC [3, 8]: 62 µM (≈ 20.1 µg/mL) | Inhibition zone, Fluoride varnish + 1 mM substance ([4]; primary test (Table 2)): 11.31 mm | Inhibition zone, Fluoride varnish + 10 mM substance ([4]; primary test (Table 2)): 15.35 mm | antibacterial activities of fluoride varnish mixed with substance compared with a fluoride varnish alone (in words) ([4]; primary test): significant antibacterial activities | increase of antibacterial activities of fluoride varnish mixed with substance ([4]; primary test, compared with a fluoride varnish alone): ≥ 70% | antibacterial activities of fluoride varnish mixed with substance (in words) ([4]; secondary test): remarkable antibacterial activities | Inhibition zone, Fluoride varnish + 1 mM substance ([4]; secondary test (Table 3)): 12.79 mm | Inhibition zone, Fluoride varnish + 10 mM substance ([4]; secondary test (Table 3)): 13.17 mm

CC1(C)C=Cc2c(ccc(C(=O)/C=C/c3ccc(O)cc3)c2O)O1 [No. 4, Isobavachromene]
Semi-inhibition zone, Fluoride varnish + 1 mM substance [1]: 20.795 mm | Semi-inhibition zone, Fluoride varnish + 10 mM substance [1]: 24.81 mm | diameter of the S. mutans inhibition zone, 0.1 mM antibacterial substance alone [2]: 6 mm | diameter of the S. mutans inhibition zone, 1 mM antibacterial substance alone [2]: 8.71 mm | diameter of the S. mutans inhibition zone, 10 mM antibacterial substance alone [2]: 9.91 mm | antibacterial activities against S. mutans (in words) [2]: significant antibacterial activities | MIC, rank (in words) [3]: lowest MIC | MIC [3, 7]: 15 µM (≈ 4.84 µg/mL) | MBC [3, 8]: 125 µM (≈ 40.3 µg/mL) | Inhibition zone, Fluoride varnish + 1 mM substance ([4]; primary test (Table 2)): 9.94 mm | Inhibition zone, Fluoride varnish + 10 mM substance ([4]; primary test (Table 2)): 10.93 mm | antibacterial activities of fluoride varnish mixed with substance compared with a fluoride varnish alone (in words) ([4]; primary test): significant antibacterial activities | Inhibition zone, Fluoride varnish + 1 mM substance ([4]; secondary test (Table 3)): 9.17 mm | Inhibition zone, Fluoride varnish + 10 mM substance ([4]; secondary test (Table 3)): 9.96 mm

CC1(C)S[C@@H]2[C@H](NC(=O)[C@H](N)c3ccccc3)C(=O)N2[C@H]1C(=O)O [Positive control group, ampicillin, reference compound]
formation of Semi-inhibition zone (in words) [1]: did not form a Semi-inhibition zone | Semi-inhibition zone, Fluoride varnish + 1 mM substance [1]: 13.55 mm | Semi-inhibition zone, Fluoride varnish + 10 mM substance [1]: 14.84 mm | diameter of the S. mutans inhibition zone, 0.1 mM antibacterial substance alone [2]: 17.24 mm | diameter of the S. mutans inhibition zone, 1 mM antibacterial substance alone [2]: 22.2 mm | diameter of the S. mutans inhibition zone, 10 mM antibacterial substance alone [2]: 22.4 mm | Inhibition zone, Fluoride varnish + 1 mM substance ([4]; primary test (Table 2)): 18.05 mm | Inhibition zone, Fluoride varnish + 10 mM substance ([4]; primary test (Table 2)): 18.72 mm | Inhibition zone, Fluoride varnish + 1 mM substance ([4]; secondary test (Table 3)): 13.55 mm | Inhibition zone, Fluoride varnish + 10 mM substance ([4]; secondary test (Table 3)): 14.84 mm

CC(C)=CCC[C@@H](C)c1ccc(C)c(O)c1 [xanthorrhizol]
activities against S. mutans (in words) [2]: significant activities | antibacterial activities against S. mutans (in words) [2]: significant antibacterial activities | antibacterial activities of fluoride varnish mixed with substance compared with a fluoride varnish alone (in words) ([4]; primary test): significant antibacterial activities

Reference: patent US10485741B2 (WONKWANG UNIVERSITY CENTER FOR INDUSTRY-ACADEMY COOPERATION, priority 2016, dated 2019)
